Experimental data taken from patent publication US6174921A, “Antitumor compositions and methods of treatment” (priority 1999, dated 2001).
Values after ≈ are worked out from the molar mass of the structure shown.

Key:
CCRF-CEM cells = assay: In vitro growth inhibition / cytotoxicity against CCRF-CEM human leukemia cells; format: cell-based; conditions: 72 hours of incubation, read-out: IC50 (concentration required for 50% inhibition of growth)
Protocol: The in vitro data were obtained using CCRF-CEM cells, a human leukemia cell line. Foley et al., Cancer, 18:522 (1965). These cells were grown using standard techniques. See, e.g., G. B. Grindey, et al., Journal of Molecular Pharmacoloy, 16:601 (1979). Dose-response curves were generated for various compounds to determine the concentration required for 50% inhibition of growth (IC50). Cluster plates were prepared in duplicate with the compound at various concentrations. Test compounds were dissolved initially in DMSO at a concentration of 4 mg/ml and further diluted with solvent to the desired concentration. Cells in Roswell Park Memorial Institute 1640 media supplemented with 10% dialyzed fetal bovine serum, and 25 mM HEPES buffer were added to the well at a final concentration of 4.8×10^4 cells/well in a total volume of 2.0 ml. After 72 hours of incubation (95% air, 5% CO2), cell numbers were determined on a ZBI Coulter counter. Cell number for indicated controls at the end of incubation was usually (4-6)×10^5 cells/well. Cell viability was also measured by staining with 3-[4,5-dimethylthiazol-2-yl]-2,5-diphenyl-tetrazolium bromide (MTT) using standard techniques. R. I. Freshney, Culture of Animal Cells: A Manual of Basic Technique, 253-254 (2d ed. 1987).
Column 1 refers to the example number of the compound tested; Column 2 depicts the in vitro cytoxicity against CCRF-CEM cells by relating the concentration of the test compound required for 50% inhibition of growth (IC50) of the cells in the well.

6C3HED lymphosarcoma = assay: In vivo antitumor activity in C3H mice bearing 6C3HED lymphosarcoma allograft (Gardner lymphosarcoma), oral
Text: A second tumor model employed C3H mice bearing the widely used allograft 6C3HED lymphosarcoma, also known as the Gardner lymphosarcoma (GLS). The 6C3HED lymphosarcoma was obtained from the Division of Cancer Treatment, National Cancer Institute, Tumor Bank, maintained at E. G. and G. Mason Research (Worcester, Mass.).
First passage tumors were stored in liquid nitrogen, using standard techniques. The transplanted tumor was reestablished from the Tumor Bank every six months or as needed. The tumor was maintained by serial passage twice weekly in the host mice.
In the procedures utilized here, the tumor was removed from passage animals and minced into 1- to 3-mm cubic fragments using sterile techniques. Tumor pieces were checked for sterility using both Antibiotic Medium 1 and Brain Heart Infusion (Difco, Detroit, Mich.). The xenograft tumor pieces were implanted into the recipient CD1 Nu/Nu mice subcutaneously in an axillary site by trochar. The allograft 6C3HED tumor pieces were implanted into the recipient C3H mice in an analogous fashion.
Drug therapy on the appropriate schedule was initiated seven days after tumor implantation for the HXGC3 xenograft and the day after tumor implantation for the 6C3HED allograft. The compound being tested was mixed with 2.5% Emulphor EL620 from GAF Corporation (1:40 dilution in 0.9% saline). The total dosage volume for each administration was 0.5 ml. All animals were weighed at the beginning and end of administration of the subject compounds. Food and water were provided ad libitum.
Each control group and each dosage level of the treated groups consisted of 9 or 10 mice selected at random from the pool of implanted animals. The formulations were administered orally by gavage with the use of an 18-gauge needle. Compounds were dosed daily for 10 days for the studies using the human tumor xenografts and 8 days for the studies using the allograft.
The xenograft tumor was measured five days after treatment ended with two dimensional measurements (width and length) of the tumor taken using digital electronic calipers interfaced to a microcomputer. J. F. Worzalla, et al., Investigational New Drugs, 8:241-251 (1990). The allograft was measured in a like manner the day after the dosing schedule ended. Tumor weights were calculated from these measurements using the following formula: [formula]
At least one control group of an equal number of mice was treated with the same volume of 2.5% Emulphor only. The percent inhibition is determined by subtracting the ratio of the mean tumor size of the test group relative to the control group from one and multiplying the result by 100.
The results of several experiments in mice bearing the HXGC3 human colon adenocarcinoma and the 6C3HED lymphosarcoma when the Formula I compounds were administered orally are provided in Table II. In the table, Column 1 refers to the example number of the compound tested; Column 2 describes the particular human tumor xenograft or mouse allograft being studied; Column 3 gives the dosage level of the compound of Formula I in milligrams per kilogram of body weight; Column 4 describes the percent inhibition of tumor growth; and Column 5 tallies the number of mice which died during the course of the experiment relative to the total number of animals in the group.

[1] = test system: HXGC3 human colon adenocarcinoma xenograft; assay: In vivo antitumor activity in CD1 Nu/Nu mice bearing HXGC3 human colon adenocarcinoma xenograft, oral; conditions: daily for 10 days
Protocol: One of the tumor models used for showing the anti-neoplastic activity of the sulfonylureas of this invention was the human colon xenograft HXGC3. […] This tumor was obtained from St. Jude's Children's Research Hospital and has been widely used as a human tumor model.
The xenograft tumor was measured five days after treatment ended with two dimensional measurements (width and length) of the tumor taken using digital electronic calipers interfaced to a microcomputer. […] Tumor weights were calculated from these measurements using the following formula: [formula]

[2] = 6C3HED, 1200 mg/kg, oral, daily for 8 days, second entry of Example 1

With `C=Cc1cccc(S(=O)(=O)NC(=O)Nc2ccc(Cl)cc2)c1` [Example 3, N-[[(4-chlorophenyl)amino]carbonyl]-3-(ethenyl)benzenesulfonamide] the IC50 (CCRF-CEM cells) was 14.4 µg/mL (≈ 42.8 µM), the “Toxic/Total (mice which died / total in group)” value (6C3HED lymphosarcoma; 6C3HED, 150 mg/kg, oral, daily for 8 days, entry of Example 3) was 0/10 and the “Toxic/Total (mice which died / total in group)” value (6C3HED lymphosarcoma; 6C3HED, 300 mg/kg, oral, daily for 8 days, entry of Example 3) was 0/10. The “Percent Inhibition of tumor growth” value (6C3HED lymphosarcoma; po, 150 mg/kg, 192 h) was 60% and the “Percent Inhibition of tumor growth” value (6C3HED lymphosarcoma; po, 300 mg/kg, 192 h) was 83%.

For `C=Cc1ccc(S(=O)(=O)NC(=O)Nc2ccc(Cl)cc2)cc1` [Example 1, N-[[(4-chlorophenyl)amino]carbonyl]-4-(ethenyl)benzenesulfonamide], the IC50 (CCRF-CEM cells) was 19.8 µg/mL (≈ 58.8 µM), the “Toxic/Total (mice which died / total in group)” value (6C3HED lymphosarcoma; 6C3HED, 37.5 mg/kg, oral, daily for 8 days, second entry of Example 1) was 0/10 and the “Toxic/Total (mice which died / total in group)” value (6C3HED lymphosarcoma; 6C3HED, 75 mg/kg, oral, daily for 8 days, second entry of Example 1) was 0/10. The “Toxic/Total (mice which died / total in group)” value (6C3HED lymphosarcoma; 6C3HED, 150 mg/kg, oral, daily for 8 days, first entry of Example 1) was 0/10, the “Toxic/Total (mice which died / total in group)” value (6C3HED lymphosarcoma; 6C3HED, 150 mg/kg, oral, daily for 8 days, second entry of Example 1) was 0/10 and the “Toxic/Total (mice which died / total in group)” value (6C3HED lymphosarcoma; 6C3HED, 300 mg/kg, oral, daily for 8 days, first entry of Example 1) was 1/10. For the same compound, the “Toxic/Total (mice which died / total in group)” value (6C3HED lymphosarcoma; 6C3HED, 300 mg/kg, oral, daily for 8 days, second entry of Example 1) was 1/10, the “Toxic/Total (mice which died / total in group)” value (6C3HED lymphosarcoma; 6C3HED, 600 mg/kg, oral, daily for 8 days, second entry of Example 1) was 2/10 and the “Percent Inhibition of tumor growth” value (6C3HED lymphosarcoma; [2]) was “Toxic”. For the same compound, the “Toxic/Total (mice which died / total in group)” value (6C3HED lymphosarcoma; [2]) was 10/10, the “Percent Inhibition of tumor growth” value (6C3HED lymphosarcoma; po, 37.5 mg/kg, 192 h) was 34% and the “Percent Inhibition of tumor growth” value (6C3HED lymphosarcoma; po, 75 mg/kg, 192 h) was 66%. For the same compound, the “Percent Inhibition of tumor growth” value (6C3HED lymphosarcoma; po, 600 mg/kg, 192 h) was 100%.

`C=Cc1ccc(S(=O)(=O)NC(=O)Nc2ccc(Cl)c(Cl)c2)cc1` [Example 2, N-[[(3,4-dichlorophenyl)amino]carbonyl]-4-(ethenyl)benzenesulfonamide] was tested, and the IC50 (CCRF-CEM cells) was 9.3 µg/mL (≈ 25.1 µM), the “Percent Inhibition of tumor growth” value ([1]; 150 mg/kg) was 93% and the “Toxic/Total (mice which died / total in group)” value ([1]; 150 mg/kg) was 0/7. For the same compound, the “Percent Inhibition of tumor growth” value ([1]; 300 mg/kg) was 97% and the “Toxic/Total (mice which died / total in group)” value ([1]; 300 mg/kg) was 1/7.
